Laboratory results taken from paper PMC12040169 (PLOS Biology, 2025).

assay: in vitro; conditions: human, hela cells, % viability

| SMILES | viability at 28.5 h, 10 µM [%] |
| --- | --- |
| Oc1cc(CCc2ccc(F)cc2)nc2ccnn12 [CBK281876] | 88.9 |
| Cn1nc2c(c1C(=O)NCC(C)(C)N1CCCCC1)CCCC2 [CBK281878] | 94.4 |
| CCn1c(C)nc2cc(NC(=O)c3oc(C)nc3C)ccc21 [CBK281881] | 106 |
| Cc1nccn1CCC(=O)N1CCc2[nH]c3ccccc3c2C1 [CBK281882] | 111 |
| CC(NC(=O)Cn1ccnc1-c1ccccc1)c1ccccn1 (stereo not drawn) [CBK281885] | 103 |
| CC(NC(=O)c1cn(C)c(=O)c2ccccc12)c1ccccn1 (stereo not drawn) [CBK281886] | 92.1 |
| Cc1ccc2[nH]nc(C(=O)NC(C)c3ccccn3)c2c1 (stereo not drawn) [CBK281887] | 69.9 |
| CC(NC(=O)c1c2c(nn1C)CCCC2)c1ccccn1 (stereo not drawn) [CBK281888] | 95.2 |
| CC(NC(=O)CCc1cn(C)c2ccccc12)c1ccccn1 (stereo not drawn) [CBK281889] | 93.1 |
| Cn1nccc1CN1CCCC(Cc2nc3ccccc3[nH]2)C1 (stereo not drawn) [CBK281892] | 98.2 |
| Cc1ccc(C(Cn2cncc2-c2cn(C)nc2C)N(C)C)cc1 (stereo not drawn) [CBK281896] | 98.7 |
| O=C(Cn1cccc2cc(-c3cccs3)nc1-2)NC1CC1 [CBK281897] | 108 |
| Cc1oc2c(c1C(=O)NCCn1ccnc1C)CCCC2 [CBK281898] | 97.1 |
| Cc1cc(C)n(CCCN(C)Cc2c(C)nc3ccccn23)n1 [CBK281901] | 90 |
| CN(CCN1CCCCC1)C(=O)c1ccccc1Cn1cccn1 [CBK281904] | 105 |
| CN(CCN1CCCCC1)C(=O)CCc1cn(C)c2ccccc12 [CBK281906] | 94.3 |
| O=C1CCCN1c1ccc(CN2CCN(C3CCCC3)C(=O)C2)cc1 [CBK281908] | 96.2 |
| Cn1c(=O)n(C)c2cc(CN3CCN(C4CCCC4)C(=O)C3)ccc21 [CBK281909] | 97.1 |
| Cn1cc(C(=O)N2CCc3nc(-c4cccc(F)c4)sc3C2)cn1 [CBK281910] | 94.5 |
| Cc1c(-c2cncn2CC(=O)NC(C)(C)C)[nH]c2ccccc12 [CBK281911] | 87.5 |
| Cn1cc(C(=O)N2CCc3nc(-c4ccccc4F)sc3C2)cn1 [CBK281914] | 89 |
| CN(C)c1ccc(CCNC(=O)c2cn3ccccc3n2)cc1 [CBK281916] | 87.4 |
| Cn1cc(C(=O)N2CCC(c3ccccc3)C2)c2ccccc2c1=O (stereo not drawn) [CBK281921] | 103 |
| CC(C)(CO)CCCn1cncc1-c1cnn(-c2ccccc2)c1 [CBK281922] | 96.9 |

| SMILES | viability at 28.5 h, 10 µM [%] |
| --- | --- |
| C=CCN1CCc2cc(-c3cncn3CC(=O)NC(C)(C)C)ccc21 [CBK281923] | 86.7 |
| CCN1c2ccc(-c3cncn3CCCn3ccnc3C)cc2CC1C (stereo not drawn) [CBK281924] | 90.7 |
| O=C1CN(Cc2cnn(-c3ccc(F)cc3)c2)CCN1C1CCCC1 [CBK281926] | 86.5 |
| CN(C(=O)C1CC1)c1nc2c(s1)CCc1c-2cnn1C [CBK281927] | 75.7 |
| CN(C(=O)c1ccco1)c1nc2c(s1)CCc1c-2cnn1C [CBK281928] | 81.2 |
| CN(C(=O)Cc1ccsc1)c1nc2c(s1)CCc1c-2cnn1C [CBK281929] | 82.4 |
| CCCN(C(=O)C1CC1)c1nc2c(s1)CCc1c-2cnn1C [CBK281930] | 88.8 |
| CN(C(=O)C1CCC1)c1nc2c(s1)CCc1c-2cnn1C [CBK281931] | 75.9 |
| Cc1cc2c(o1)CCc1sc(N(C)C(=O)C3CCCO3)nc1-2 (stereo not drawn) [CBK281932] | 80.3 |
| O=c1[nH]c2ccccc2cc1CNc1ccc(F)cc1F [CBK281933] | 84.1 |
| COc1ccc2cc(CNc3ccc(F)c(F)c3)c(=O)[nH]c2c1 [CBK281934] | 83 |
| Cc1ccc2[nH]c(=O)c(CNc3ccc4[nH]ncc4c3)cc2c1 [CBK281936] | 73 |
| O=C(CN1CCC(O)(c2ccccc2F)CC1)N1CCCCC1 [CBK281938] | 103 |
| Cc1cc2cc3c(nc2cc1C)OCCNC3 [CBK281939] | 97.1 |
| Cc1ccc2nc3c(cc2c1)CNCC(C)O3 (stereo not drawn) [CBK281941] | 85.9 |
| O=C(CN1C2CCC1CC(O)(c1ccccc1F)C2)NCC1CC1 (stereo not drawn) [CBK281942] | 93.4 |
| O=C(C1CC1)N1CCCC(c2nc(-c3cccs3)no2)C1 (stereo not drawn) [CBK281944] | 97.1 |
| O=C1NC2(CCCCC2)C(=O)N1c1ccc(F)cc1F [CBK281945] | 111 |
| OC1(c2ccc(F)cc2)CC2CCC(C1)N2 (stereo not drawn) [CBK281947] | 89.7 |
| Cc1cc(C2CCCCCN2Cc2cc(Cl)ccc2O)on1 (stereo not drawn) [CBK281948] | 89.2 |
| CC1CC(C)CN(CCCNC(=O)c2cc(-c3cccs3)no2)C1 (stereo not drawn) [CBK281949] | 93 |
| Cn1cc(C(=O)NCC(c2ccccc2F)N2CCCC2)ccc1=O (stereo not drawn) [CBK281950] | 83.9 |
| Cc1nccn1CCC1CCN(C(=O)c2cnn(C)c2)CC1 [CBK281951] | 89.3 |
| CC(=O)N1CCC(C(=O)NCCc2cccc(C)c2)C1 (stereo not drawn) [CBK281952] | 110 |

| SMILES | viability at 28.5 h, 10 µM [%] |
| --- | --- |
| Cc1cc(CN(C)Cc2ccc(N3CCCC3)c(F)c2)n[nH]1 [CBK281953] | 104 |
| Cc1nccn1CCC(=O)NCCc1ccc(N(C)C)cc1 [CBK281954] | 82.6 |
| CCN1CCC(CC(=O)N2CCC(c3ccccc3)C2)CC1 (stereo not drawn) [CBK281958] | 79.5 |
| Cc1noc(C)c1CC(=O)N1CCC(c2ccccc2)C1 (stereo not drawn) [CBK281959] | 102 |
| CCN1CCc2cc(CN3CCCC(Cn4ccnc4C)C3)ccc21 (stereo not drawn) [CBK281965] | 96.9 |
| CN(CCc1ccccn1)C(=O)C1CN(C(=O)C2CC23CCC3)C1 (stereo not drawn) [CBK281969] | 104 |
| O=C(CN1CCCC1Cn1cccn1)N1CCCc2ccccc21 (stereo not drawn) [CBK281971] | 89 |
| Cc1ccc(C(C)(C)C(=O)N2CCC(CC(=O)N(C)C)CC2)cc1 [CBK281973] | 99.8 |
| Cc1nccn1CC1CCCN(Cc2nc3ccccc3n2C)C1 (stereo not drawn) [CBK281975] | 110 |
| Cc1cc(C)n(C2CCN(Cc3ccc(-n4ccnc4C)cc3)CC2)n1 [CBK281976] | 112 |
| Cc1nccn1CCNC(=O)CC1C(=O)N(C)c2ccccc21 (stereo not drawn) [CBK281977] | 101 |
| CC(C)(C)NC(=O)Cn1cncc1-c1[nH]c2ccccc2c1Cl [CBK281981] | 105 |
| Cc1nc(C(F)(F)F)ccc1C(=O)NCCn1ccnc1C [CBK281982] | 88.9 |
| Cc1nccn1CCNC(=O)Cn1cnc2ccccc21 [CBK281983] | 102 |
| Cc1cc(CN(C)Cc2c(C)nn(-c3ccc(F)cc3)c2C)n[nH]1 [CBK281990] | 95 |
| CN1CCC(C(=O)Nc2cccc(Cn3cccn3)c2)C1 (stereo not drawn) [CBK281991] | 100 |
| CC(CNC(=O)CCc1cn(C)c2ccccc12)N1CCOCC1 (stereo not drawn) [CBK281996] | 87.4 |
| CCn1nc(C)c(-c2cncn2CCCOc2cccc(C)c2)c1C [CBK281997] | 98.2 |
| CCn1nc(C)c(-c2cncn2Cc2ccccc2CN(C)C)c1C [CBK281998] | 88.1 |
| CCCC(=O)NCCn1nc(-c2ccccc2F)cc1CN(C)C [CBK282000] | 111 |
| Cc1cc(N(C)C)cc(C2CCCN(C(=O)C3CCC3)C2)n1 (stereo not drawn) [CBK282004] | 88.7 |
| CC(C)CC(=O)NCCn1nc(-c2ccccc2F)cc1CN(C)C [CBK282005] | 97.4 |
| CN(C)Cc1cc(-c2ccccc2F)nn1CCNC(=O)C1CC1 [CBK282006] | 90.5 |
| CCCC(=O)NCc1ccc(-c2cc(CN(C)C)n(C)n2)cc1 [CBK282007] | 98.4 |

| SMILES | viability at 28.5 h, 10 µM [%] |
| --- | --- |
| CN1CC(C(=O)NCC(c2ccccc2)N2CCCCCC2)CC1=O (stereo not drawn) [CBK282008] | 105 |
| Cc1nn(CCNC(=O)C(c2ccc(F)cc2)N(C)C)c(C)c1C (stereo not drawn) [CBK282009] | 89.2 |
| Cc1cc(C)n(C(C)CC(=O)N2CCN(C)CC2c2ccccc2)n1 (stereo not drawn) [CBK282014] | 92.2 |
| CCN1CC(C(=O)N2CCN(C)CC2c2ccccc2)CC1=O (stereo not drawn) [CBK282026] | 92.2 |
| CCN1CC(C(=O)N2CCCC(COc3ccc(F)cc3)C2)CC1=O (stereo not drawn) [CBK282028] | 85.3 |
| CCC(NC(=O)C(C)n1cc(Cl)cn1)c1ccc(OC)cc1 (stereo not drawn) [CBK282029] | 95.3 |
| CN(CC1OCCc2ccccc21)C(=O)CCC1CCCO1 (stereo not drawn) [CBK282030] | 87.1 |
| O=C(CCC1CCCO1)N1CCCC(COc2ccc(F)cc2)C1 (stereo not drawn) [CBK282031] | 97.7 |
| CCc1cc(C(=O)N2CCC(Oc3ccc(F)cc3)CC2)n(C)n1 [CBK282034] | 86.5 |
| COC(C)CN(C)Cc1c(C)[nH]c2ccc(F)cc12 (stereo not drawn) [CBK282035] | 84.5 |
| CCCC(C(=O)NCCN(C)C1CCCCC1)n1nc(C)cc1C (stereo not drawn) [CBK282039] | 96.4 |
| Cc1nccn1CC(C)C(=O)NCCN(C)C1CCCCC1 (stereo not drawn) [CBK282040] | 102 |
| CC(Cn1cc(Cl)cn1)C(=O)NCCN(C)C1CCCCC1 (stereo not drawn) [CBK282041] | 86.1 |
| COc1ccc2c(c1)CCCN2C(=O)Cn1nc(C)cc1C [CBK282042] | 91.5 |
| COC(C)CN(C)C(=O)c1oc2cc(C)ccc2c1C (stereo not drawn) [CBK282043] | 88.1 |
| CCCc1cc(CNC(=O)C(C)n2ccnc2)on1 (stereo not drawn) [CBK282046] | 88.3 |
| CCCc1cc(CNC(=O)c2ccnn2C(C)C)on1 [CBK282047] | 97.4 |
| Cc1cc(C)n(C(C)CNC(=O)C(C)n2ccnc2)n1 (stereo not drawn) [CBK282049] | 109 |
| CC(Cc1cccs1)NC(=O)C(C)n1ccnc1 (stereo not drawn) [CBK282050] | 89.9 |
| c1ccc2oc(CN3CCC(N4CCCCC4)CC3)cc2c1 [CBK282052] | 87.1 |
| CN(C)CCC1CCCCN1C(=O)[C@@H]1C[C@@H]2C=C[C@H]1C2 (stereo partly drawn) [CBK282054] | 89.2 |
| CN(C)CCC1CCCCN1C(=O)C1C2CCCCC21 (stereo not drawn) [CBK282055] | 98.9 |
| CCN1CC(C(=O)N2CCCCC2CN(C)C)CC1=O (stereo not drawn) [CBK282056] | 108 |
| Cc1cc(C(=O)N2CCn3cnnc3C2)c(C2CC2)o1 [CBK282059] | 115 |
